Experimental data taken from patent publication US10597388B2, “Pyridazinone herbicides” (FMC CORPORATION, priority 2014, dated 2020).

Legend:
Type in all cases: in vivo
[1] = tested on: foxtail, giant (giant foxtail, Setaria faberii); test: Test A greenhouse herbicide test, pre- and postemergence
Summary of the method: (§1)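 Seeds sown in loam–sand blend got a preemergence directed soil spray of compound in non-phytotoxic solvent with surfactant. Postemergence treatment was given at 2–10 cm, one- to two-leaf stage. After ~10 d in greenhouse, injury was rated visually vs untreated controls, 0 (no effect) to 100 (complete control).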

[2] = tested on: pigweed (Amaranthus retroflexus); test: as above
Summary of the method: as §1

[3] = tested on: ryegrass, Italian (Italian ryegrass, Lolium multiflorum); test: as above
Summary of the method: as §1

kochia (Kochia scoparia) = test: as above
Summary of the method: as §1

corn (Zea mays) = test: as above; conditions: Postemergence
Summary of the method: as §1

[4] = tested on: ragweed (common ragweed, Ambrosia elatior); test: as above
Summary of the method: as §1

[5] = tested on: wheat (Triticum aestivum); test: as above; conditions: Postemergence
Summary of the method: as §1

[6] = tested on: barnyardgrass (Echinochloa crus-galli); test: as above
Summary of the method: as §1

[7] = tested on: galium (catchweed bedstraw, Galium aparine); test: Test C greenhouse herbicide test, pre- and postemergence
Source text: (§2) Seeds of plant species selected from blackgrass (Alopecurus myosuroides), ryegrass, Italian (Italian ryegrass, Lolium multiflorum), wheat (winter wheat, Triticum aestivum), galium (catchweed bedstraw, Galium aparine), corn (Zea mays), large crabgrass, large (large crabgrass, Digitaria sanguinalis), foxtail, giant (giant foxtail, Setaria faberii), johnsongrass (Sorghum halepense), lambsquarters (Chenopodium album), morningglory (Ipomoea coccinea), nutsedge, yellow (yellow nutsedge, Cyperus esculentus), pigweed (Amaranthus retroflexus), ragweed (common ragweed, Ambrosia elatior), soybean (Glycine max), barnyardgrass (Echinochloa crus-galli), oilseed rape (Brassica napus), waterhemp (common waterhemp, Amaranthus rudis), and velvetleaf (Abutilon theophrasti) were planted into a blend of loam soil and sand and treated preemergence with test chemicals formulated in a non-phytotoxic solvent mixture which included a surfactant.
(§3) At the same time, plants selected from these crop and weed species and also chickweed (common chickweed, Stellaria media), kochia (Kochia scoparia), and oat, wild (wild oat, Avena fatua), were planted in pots containing Redi-Earth® planting medium (Scotts Company, 14111 Scottslawn Road, Marysville, Ohio 43041) comprising spaghnum peat moss, vermiculite, wetting agent and starter nutrients and treated with postemergence applications of test chemicals formulated in the same manner. Plants ranged in height from 2 to 18 cm (1- to 4-leaf stage) for postemergence treatments. Treated plants and controls were maintained in a greenhouse for 13 to 15 d, after which time all species were compared to controls and visually evaluated. Plant response ratings, summarized in Table C, are based on a scale of 0 to 100 where 0 is no effect and 100 is complete control. A dash (-) response means no test result.

[8] = tested on: barnyardgrass (Echinochloa crus-galli); test: as above
Source text: as §2, §3

[9] = tested on: velvetleaf (Abutilon theophrasti); test: as above
Source text: as §2, §3

[10] = Postemergence, 125 g ai/ha, 0 to 100 scale where 0 is no effect and 100 is complete control
[11] = Postemergence, 500 g ai/ha, 0 to 100 scale, 0 is no effect, 100 is complete control
[12] = Preemergence, 125 g ai/ha, 0 to 100 scale where 0 is no effect and 100 is complete control
[13] = Preemergence, 500 g ai/ha, 0 to 100 scale where 0 is no effect and 100 is complete control
[14] = 125 g ai/ha, 0 to 100 scale where 0 is no effect and 100 is complete control
[15] = 500 g ai/ha, 0 to 100 scale, 0 is no effect, 100 is complete control
[16] = Postemergence, 125 g ai/ha, scale 0 to 100, 0 is no effect, 100 is complete control
[17] = Postemergence, 250 g ai/ha, scale 0 to 100, 0 no effect, 100 complete control, 13 to 15 d
[18] = Preemergence, 31 g ai/ha, scale 0 to 100, 0 is no effect, 100 is complete control
[19] = Preemergence, 62 g ai/ha, scale 0 to 100, 0 is no effect, 100 is complete control
[20] = Preemergence, 125 g ai/ha, scale 0 to 100, 0 is no effect, 100 is complete control
[21] = Preemergence, 250 g ai/ha, scale 0 to 100 (0 no effect, 100 complete control)
[22] = postemergence, 62 g ai/ha, scale 0 to 100, 0 no effect, 100 complete control
[23] = Postemergence, 125 g ai/ha, 0 to 100 scale, 0 no effect, 100 complete control
[24] = Postemergence, 500 g ai/ha, visual rating after approx. 10 d, 0 to 100 scale (0 no effect, 100 complete control)
[25] = Preemergence, 125 g ai/ha, visual injury rating, 0 to 100 scale (0 no effect, 100 complete control), approx. 10 d
[26] = 125 g ai/ha, 0 to 100 scale, 0 no effect, 100 complete control
[27] = 500 g ai/ha, visual rating after approx. 10 d, 0 to 100 scale (0 no effect, 100 complete control)
[28] = Postemergence, 31 g ai/ha, scale 0 to 100 (0 no effect, 100 complete control)
[29] = Postemergence, 62 g ai/ha, 0 to 100 scale (0 no effect, 100 complete control)
[30] = Postemergence, 250 g ai/ha, scale 0 to 100, 0 is no effect, 100 is complete control
[31] = postemergence, 125 g ai/ha, scale 0 to 100, 0 no effect, 100 complete control

CCOC(=O)Oc1c(C)nn(C)c(=O)c1-c1c(C)sc2ccc(C)cc12 [Compound 82]
Plant response rating, Foxtail, Giant [1, 10]: 50 | Foxtail, Giant plant response rating [1, 11]: 70 | Foxtail, Giant plant response rating [1, 12]: 70 | Plant response rating, Foxtail, Giant [1, 13]: 90 | Plant response rating, Pigweed [2, 10]: 60 | Pigweed plant response rating [2, 11]: 80 | Pigweed plant response rating [2, 12]: 100 | Plant response rating, Pigweed [2, 13]: 100 | Plant response rating, Ryegrass, Italian [3, 10]: 70 | Ryegrass, Italian plant response rating [3, 11]: 80 | Ryegrass, Italian plant response rating [3, 12]: 80 | Plant response rating, Ryegrass, Italian [3, 13]: 90 | Plant response rating, Kochia (kochia (Kochia scoparia); [10]): 30 | Kochia plant response rating (kochia (Kochia scoparia); [11]): 80 | Kochia plant response rating (kochia (Kochia scoparia); [12]): 70 | Plant response rating, Kochia (kochia (Kochia scoparia); [13]): 90 | Plant response rating, Corn (corn (Zea mays); [14]): 0 | Corn plant response rating (corn (Zea mays); [15]): 0 | Plant response rating, Ragweed [4, 10]: 70 | Ragweed plant response rating [4, 11]: 70 | Ragweed plant response rating [4, 12]: 80 | Plant response rating, Ragweed [4, 13]: 80 | Plant response rating, Wheat [5, 14]: 0 | Wheat plant response rating [5, 15]: 0 | Plant response rating, Barnyardgrass [6, 10]: 30 | Barnyardgrass plant response rating [6, 11]: 50 | Barnyardgrass plant response rating [6, 12]: 40 | Plant response rating, Barnyardgrass [6, 13]: 70 | Plant response rating, Galium [7, 16]: 95 | Plant response rating, Galium [7, 17]: 95 | Plant response rating, Galium [7, 18]: 90 | Plant response rating, Galium [7, 19]: 90 | Plant response rating, Galium [7, 20]: 90 | Galium plant response rating [7, 21]: 95 | Galium plant response rating [7, 22]: 95 | Barnyardgrass plant response rating ([8]; Postemergence, 31 g ai/ha, 0 to 100 scale (0 no effect, 100 complete control)): 20 | Plant response rating, Barnyardgrass [8, 16]: 25 | Plant response rating, Barnyardgrass [8, 17]: 30 | Plant response rating, Barnyardgrass [8, 18]: 10 | Plant response rating, Barnyardgrass [8, 19]: 55 | Plant response rating, Barnyardgrass [8, 20]: 70 | Barnyardgrass plant response rating [8, 21]: 90 | Barnyardgrass plant response rating [8, 22]: 25 | Plant response rating, Velvetleaf [9, 16]: 95 | Plant response rating, Velvetleaf [9, 17]: 90 | Plant response rating, Velvetleaf [9, 18]: 65 | Plant response rating, Velvetleaf [9, 19]: 80 | Plant response rating, Velvetleaf [9, 20]: 85 | Velvetleaf plant response rating [9, 21]: 90 | Velvetleaf plant response rating [9, 22]: 80

CSCC(=O)Oc1c(C)nn(C)c(=O)c1-c1cccc2ccccc12 [Compound 171]
Plant response rating, Foxtail, Giant [1, 23]: 40 | Plant response rating, Foxtail, Giant [1, 24]: 90 | Plant response rating, Foxtail, Giant [1, 25]: 50 | Plant response rating, Foxtail, Giant [1, 13]: 100 | Plant response rating, Pigweed [2, 23]: 90 | Plant response rating, Pigweed [2, 24]: 100 | Plant response rating, Pigweed [2, 25]: 90 | Plant response rating, Pigweed [2, 13]: 100 | Plant response rating, Ryegrass, Italian [3, 23]: 100 | Plant response rating, Ryegrass, Italian [3, 24]: 100 | Plant response rating, Ryegrass, Italian [3, 25]: 100 | Plant response rating, Ryegrass, Italian [3, 13]: 100 | Plant response rating, Kochia (kochia (Kochia scoparia); [23]): 100 | Plant response rating, Kochia (kochia (Kochia scoparia); [24]): 100 | Plant response rating, Kochia (kochia (Kochia scoparia); [25]): 100 | Plant response rating, Kochia (kochia (Kochia scoparia); [13]): 100 | Plant response rating, Corn (corn (Zea mays); [26]): 20 | Plant response rating, Corn (corn (Zea mays); [27]): 40 | Plant response rating, Ragweed [4, 23]: 100 | Plant response rating, Ragweed [4, 24]: 100 | Plant response rating, Ragweed [4, 25]: 70 | Plant response rating, Ragweed [4, 13]: 90 | Plant response rating, Wheat [5, 26]: 30 | Plant response rating, Wheat [5, 27]: 70 | Plant response rating, Barnyardgrass [6, 23]: 40 | Plant response rating, Barnyardgrass [6, 24]: 90 | Plant response rating, Barnyardgrass [6, 25]: 70 | Plant response rating, Barnyardgrass [6, 13]: 100 | Plant response rating, Galium [7, 28]: 95 | Galium plant response rating [7, 29]: 95 | Plant response rating, Galium [7, 30]: 95 | Plant response rating, Galium [7, 18]: 90 | Plant response rating, Galium [7, 19]: 90 | Plant response rating, Galium [7, 20]: 98 | Galium plant response rating [7, 21]: 100 | Galium plant response rating [7, 31]: 95 | Plant response rating, Barnyardgrass [8, 28]: 15 | Barnyardgrass plant response rating [8, 29]: 35 | Plant response rating, Barnyardgrass [8, 30]: 60 | Plant response rating, Barnyardgrass [8, 18]: 5 | Plant response rating, Barnyardgrass [8, 19]: 35 | Plant response rating, Barnyardgrass [8, 20]: 75 | Barnyardgrass plant response rating [8, 21]: 95 | Barnyardgrass plant response rating [8, 31]: 40 | Plant response rating, Velvetleaf [9, 28]: 35 | Velvetleaf plant response rating [9, 29]: 70 | Plant response rating, Velvetleaf [9, 30]: 100 | Plant response rating, Velvetleaf [9, 18]: 70 | Plant response rating, Velvetleaf [9, 19]: 90 | Plant response rating, Velvetleaf [9, 20]: 95 | Velvetleaf plant response rating [9, 31]: 100

CC(=O)Oc1c(Br)nn(C)c(=O)c1-c1c(C)ccc2ccccc12 [Compound 129]
Plant response rating, Foxtail, Giant [1, 10]: 90 | Plant response rating, Foxtail, Giant [1, 24]: 100 | Foxtail, Giant plant response rating [1, 12]: 90 | Plant response rating, Foxtail, Giant [1, 13]: 100 | Plant response rating, Pigweed [2, 10]: 90 | Plant response rating, Pigweed [2, 24]: 100 | Pigweed plant response rating [2, 12]: 100 | Plant response rating, Pigweed [2, 13]: 100 | Plant response rating, Ryegrass, Italian [3, 10]: 100 | Plant response rating, Ryegrass, Italian [3, 24]: 100 | Ryegrass, Italian plant response rating [3, 12]: 100 | Plant response rating, Ryegrass, Italian [3, 13]: 100 | Plant response rating, Kochia (kochia (Kochia scoparia); [10]): 70 | Plant response rating, Kochia (kochia (Kochia scoparia); [24]): 90 | Kochia plant response rating (kochia (Kochia scoparia); [12]): 70 | Plant response rating, Kochia (kochia (Kochia scoparia); [13]): 90 | Plant response rating, Corn (corn (Zea mays); [14]): 10 | Plant response rating, Corn (corn (Zea mays); [27]): 80 | Plant response rating, Ragweed [4, 10]: 100 | Plant response rating, Ragweed [4, 24]: 100 | Ragweed plant response rating [4, 12]: 90 | Plant response rating, Ragweed [4, 13]: 90 | Plant response rating, Wheat [5, 14]: 20 | Plant response rating, Wheat [5, 27]: 80 | Plant response rating, Barnyardgrass [6, 10]: 90 | Plant response rating, Barnyardgrass [6, 24]: 100 | Barnyardgrass plant response rating [6, 12]: 90 | Plant response rating, Barnyardgrass [6, 13]: 100 | Plant response rating, Galium [7, 28]: 95 | Galium plant response rating [7, 29]: 100 | Plant response rating, Galium [7, 17]: 100 | Plant response rating, Galium [7, 18]: 95 | Plant response rating, Galium [7, 19]: 98 | Plant response rating, Galium [7, 20]: 100 | Galium plant response rating [7, 21]: 98 | Galium plant response rating [7, 31]: 100 | Plant response rating, Barnyardgrass [8, 28]: 50 | Barnyardgrass plant response rating [8, 29]: 65 | Plant response rating, Barnyardgrass [8, 16]: 70 | Plant response rating, Barnyardgrass [8, 17]: 85 | Plant response rating, Barnyardgrass [8, 18]: 15 | Plant response rating, Barnyardgrass [8, 19]: 70 | Plant response rating, Barnyardgrass [8, 20]: 100 | Barnyardgrass plant response rating [8, 21]: 90 | Plant response rating, Velvetleaf [9, 28]: 85 | Velvetleaf plant response rating [9, 29]: 95 | Plant response rating, Velvetleaf [9, 17]: 100 | Plant response rating, Velvetleaf [9, 18]: 70 | Plant response rating, Velvetleaf [9, 19]: 85 | Plant response rating, Velvetleaf [9, 20]: 98 | Velvetleaf plant response rating [9, 21]: 98 | Velvetleaf plant response rating [9, 31]: 95
